Measurements reported in patent US11185537B2, “3-(5-amino-1-oxoisoindolin-2-yl)piperidine-2,6-dione derivatives and uses thereof” (Novartis AG, priority 2018, dated 2021).
Where a name gives a salt, the structure may show the parent alone.

Molecular target: IKZF2 (Helios) (Homo sapiens (Human), UniProt Q96SW2+Q9UKS7)
Assay: Prolabel quantification of IKZF2 protein levels in 293GT cells

Sequence of IKZF2 (Helios) (Q9UKS7 whole entry): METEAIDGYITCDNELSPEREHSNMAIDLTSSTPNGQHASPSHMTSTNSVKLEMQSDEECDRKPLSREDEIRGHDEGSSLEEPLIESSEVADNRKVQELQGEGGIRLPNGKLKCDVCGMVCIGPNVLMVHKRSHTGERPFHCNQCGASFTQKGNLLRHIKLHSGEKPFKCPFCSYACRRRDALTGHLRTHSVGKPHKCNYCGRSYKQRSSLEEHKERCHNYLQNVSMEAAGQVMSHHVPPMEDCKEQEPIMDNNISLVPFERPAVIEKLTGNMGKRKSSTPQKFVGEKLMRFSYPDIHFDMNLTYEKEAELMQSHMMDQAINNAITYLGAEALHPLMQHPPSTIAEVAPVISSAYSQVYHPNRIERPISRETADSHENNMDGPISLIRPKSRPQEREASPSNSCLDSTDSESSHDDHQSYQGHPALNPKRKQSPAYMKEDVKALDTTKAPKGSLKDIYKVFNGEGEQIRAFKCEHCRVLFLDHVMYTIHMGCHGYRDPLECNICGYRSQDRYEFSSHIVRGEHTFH
Sequence of IKZF2 (Helios) (Q96SW2 whole entry): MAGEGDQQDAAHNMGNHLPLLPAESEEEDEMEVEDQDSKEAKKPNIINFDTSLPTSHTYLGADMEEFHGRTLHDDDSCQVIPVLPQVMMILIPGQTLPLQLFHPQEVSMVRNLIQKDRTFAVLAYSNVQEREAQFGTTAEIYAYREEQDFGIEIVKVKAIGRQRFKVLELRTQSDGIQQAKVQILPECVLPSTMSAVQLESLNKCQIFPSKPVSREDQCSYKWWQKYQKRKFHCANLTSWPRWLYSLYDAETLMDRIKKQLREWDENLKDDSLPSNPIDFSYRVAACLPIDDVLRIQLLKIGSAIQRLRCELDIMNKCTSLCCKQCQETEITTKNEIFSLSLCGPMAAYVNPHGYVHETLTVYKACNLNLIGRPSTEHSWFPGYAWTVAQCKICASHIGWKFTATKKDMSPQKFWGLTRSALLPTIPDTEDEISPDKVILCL
Sequence of IKZF2 (Helios) (Q16531 whole entry partner): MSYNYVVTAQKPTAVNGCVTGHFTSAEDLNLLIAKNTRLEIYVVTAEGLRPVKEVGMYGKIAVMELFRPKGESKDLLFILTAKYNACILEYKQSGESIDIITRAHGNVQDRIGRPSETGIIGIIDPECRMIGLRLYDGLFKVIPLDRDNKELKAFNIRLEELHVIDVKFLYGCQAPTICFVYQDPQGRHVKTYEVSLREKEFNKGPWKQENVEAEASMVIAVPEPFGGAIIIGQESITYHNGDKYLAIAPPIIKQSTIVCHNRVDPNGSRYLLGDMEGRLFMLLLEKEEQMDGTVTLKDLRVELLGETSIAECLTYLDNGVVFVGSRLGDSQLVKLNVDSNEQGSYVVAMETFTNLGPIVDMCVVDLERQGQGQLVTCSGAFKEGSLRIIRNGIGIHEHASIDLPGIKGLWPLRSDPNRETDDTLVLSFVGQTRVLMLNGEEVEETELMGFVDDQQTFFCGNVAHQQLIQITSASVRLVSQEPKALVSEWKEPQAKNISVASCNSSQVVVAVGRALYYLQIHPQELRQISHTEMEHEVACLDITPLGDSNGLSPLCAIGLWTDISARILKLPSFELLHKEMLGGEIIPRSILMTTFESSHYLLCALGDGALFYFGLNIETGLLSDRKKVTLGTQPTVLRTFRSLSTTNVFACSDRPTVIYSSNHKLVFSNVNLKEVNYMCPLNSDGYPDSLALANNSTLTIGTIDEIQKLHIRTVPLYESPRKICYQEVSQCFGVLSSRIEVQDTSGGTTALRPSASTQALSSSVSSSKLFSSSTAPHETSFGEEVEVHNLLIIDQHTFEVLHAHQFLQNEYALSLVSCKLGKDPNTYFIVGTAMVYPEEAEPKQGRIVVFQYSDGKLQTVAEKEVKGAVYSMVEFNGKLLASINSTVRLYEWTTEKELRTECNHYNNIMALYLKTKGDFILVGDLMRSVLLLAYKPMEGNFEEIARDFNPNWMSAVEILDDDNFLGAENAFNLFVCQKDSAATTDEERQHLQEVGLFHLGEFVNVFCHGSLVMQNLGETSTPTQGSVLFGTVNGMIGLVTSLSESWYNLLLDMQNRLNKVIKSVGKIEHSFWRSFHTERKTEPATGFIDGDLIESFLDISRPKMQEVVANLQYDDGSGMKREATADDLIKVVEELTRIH

| Dmax at 10 µM (24 h, read-out: IKZF2 % protein reduction at 10 μM, 24 h) [%] | SMILES | EC50 (read-out: IKZF2 EC50, Pro-label assay, 293GT cells, degradation) [nM] |
| --- | --- | --- |
| 65 | CN[C@H]1CCCC[C@@H]1N(C)c1ccc2c(c1)CN(C1CCC(=O)NC1=O)C2=O (mixture of isomers) [I-9, Racemic trans-3-(5-(methyl(-2-(methylamino)cyclohexyl)amino)-1-oxoisoindolin-2-yl)piperidine-2,6-dione HC(O)OH Salt] |  |
|  | CC(C)CN[C@H]1CCCC[C@@H]1Nc1ccc2c(c1)CN(C1CCC(=O)NC1=O)C2=O (stereo partly drawn) [I-15, 3-(5-(((1S,2S)-2-(isobutylamino)cyclohexyl)amino)-1-oxoisoindolin-2-yl)piperidine-2,6-dione] | 940 |
